Assay in all cases: AK assay 384-well format, Prestwick library screening
One test concerns P. aeruginosa. The test is classed as cell-based, Pseudomonas aeruginosa. Conditions: 50 μM final drug concentration; for fold induction at 50 µM: Pseudomonas aeruginosa, 3 h.
For test [1], the system named is A. baumannii strain 98-37-09. It counts as cell-based, Acinetobacter baumannii. Particulars: 50 μM final drug concentration; for fold induction at 50 µM: Acinetobacter baumannii, 983709, 3 h.
Another test relates to E. cloacae. It counts as cell-based, Enterobacter cloacae. Particulars: 50 μM final drug concentration; for fold induction at 50 µM: Enterobacter cloacae, 3 h.
The next test concerns K. pneumoniae. The test is classed as cell-based, Klebsiella pneumoniae. Conditions: 50 μM final drug concentration; for fold induction at 50 µM: Klebsiella pneumoniae, 3 h.
Test [2] has as its system S. aureus strain USA300-0114. It counts as cell-based, Staphylococcus aureus. Particulars: 50 μM final drug concentration; for fold induction at 50 µM: Staphylococcus aureus, USA300, 3 h.
The next test concerns E. coli. The test is classed as cell-based, Escherichia coli. Conditions: 50 μM final drug concentration; for fold induction at 50 µM: Escherichia coli, 3 h.
A further test concerns E. faecium. It counts as cell-based, Enterococcus faecium. Conditions: 50 μM final drug concentration; for fold induction at 50 µM: Enterococcus faecium, 3 h.
The mark [3] stands for this setting: 384-well format, cutoff for positive-scoring molecules 3-fold increase, read-out: AK-based Prestwick Library Screening Results, P. aeruginosa (increase in extracellular AK activity).
[4] abbreviates: 384-well format, cutoff for positive-scoring molecules 3-fold increase, read-out: AK-based Prestwick Library Screening Results, A. baumannii (increase in extracellular AK activity).
Setting [5] is: 384-well format, cutoff for positive-scoring molecules 3-fold increase, read-out: AK-based Prestwick Library Screening Results, E. cloacae (increase in extracellular AK activity).
[6] abbreviates: 384-well format, cutoff for positive-scoring molecules 3-fold increase, read-out: AK-based Prestwick Library Screening Results, K. pneumoniae (increase in extracellular AK activity).
Setting [7] is: 384-well format, cutoff for positive-scoring molecules 3-fold increase, read-out: AK-based Prestwick Library Screening Results, S. aureus (increase in extracellular AK activity).
Where [8] appears, read: 384-well format, cutoff for positive-scoring molecules 3-fold increase, read-out: AK-based Prestwick Library Screening Results, E. coli (increase in extracellular AK activity).
Setting [9] is: 384-well format, cutoff for positive-scoring molecules 3-fold increase, read-out: AK-based Prestwick Library Screening Results, E. faecium (increase in extracellular AK activity).

Structures can show the parent of a compound that is named as a salt. Where two headings read alike, the source gives them in different places.

`CC1=CC(=O)C2=C(C)CC[C@@H]3[C@H](OC(=O)[C@H]3C)[C@@H]12` [Leucomisine]: the “AK-based Prestwick library screening result, P. aeruginosa (fold increase in extracellular AK activity)” value with P. aeruginosa (planktonic P. aeruginosa, positive cutoff 3-fold increase) came to 1.1. Besides, the “AK-based Prestwick library screening result, A. baumannii (fold increase in extracellular AK activity)” value in test [1] (planktonic A. baumannii, positive cutoff 3-fold increase) stood at 1.0. For the same compound, the “AK-based Prestwick library screening result, E. cloacae (fold increase in extracellular AK activity)” value with E. cloacae (planktonic E. cloacae, positive cutoff 3-fold increase) is on record as 1.6. Moreover, in the test on K. pneumoniae (planktonic K. pneumoniae, positive cutoff 3-fold increase), the “AK-based Prestwick library screening result, K. pneumoniae (fold increase in extracellular AK activity)” value came to 1.0. Moreover, the “AK-based Prestwick library screening result, S. aureus (fold increase in extracellular AK activity)” value in test [2] (planktonic S. aureus, positive cutoff 3-fold increase) is reported as 0.9. Further, in the test with E. coli (planktonic E. coli, […]), the “AK-based Prestwick library screening result, E. coli (fold increase in extracellular AK activity)” value is 1.3. For the same compound, the “AK-based Prestwick library screening result, E. faecium (fold increase in extracellular AK activity)” value in the test on E. faecium (planktonic E. faecium, positive cutoff 3-fold increase) is on record as 1.1.

In the case of `c1ccc([C@H]2CN3CCSC3=N2)cc1` [Levamisole hydrochloride], the fold induction at 50 µM in the test on P. aeruginosa (setting [3]) is 1; in test [1] (setting [4]), 1.1; in the test with E. cloacae (setting [5]) it was 1; in the test with K. pneumoniae (setting [6]), 0.7; in test [2] (setting [7]), 0.9; in the test on E. coli (setting [8]), 1. Also, the fold induction at 50 µM in the test on E. faecium (setting [9]) was determined as 1.

On to `C[C@@H]1CN([C@H]2CC[C@](C#N)(c3ccc(F)cc3)CC2)CC[C@]1(C(=O)O)c1ccccc1` [Levocabastine hydrochloride], for which the fold induction at 50 µM came out at 1 with P. aeruginosa (planktonic P. aeruginosa, positive cutoff 3-fold increase, read-out: AK-based Prestwick library screening result, P. aeruginosa (fold increase in extracellular AK activity)); 1.2 in test [1] (planktonic A. baumannii, positive cutoff 3-fold increase, read-out: AK-based Prestwick library screening result, A. baumannii (fold increase in extracellular AK activity)); 1.6 with E. cloacae (planktonic E. cloacae, positive cutoff 3-fold increase, read-out: AK-based Prestwick library screening result, E. cloacae (fold increase in extracellular AK activity)); 1.1 in the test on K. pneumoniae (planktonic K. pneumoniae, positive cutoff 3-fold increase, read-out: AK-based Prestwick library screening result, K. pneumoniae (fold increase in extracellular AK activity)); 1.1 in test [2] (planktonic S. aureus, positive cutoff 3-fold increase, read-out: AK-based Prestwick library screening result, S. aureus (fold increase in extracellular AK activity)); 1.1 in the test on E. coli (planktonic E. coli, positive cutoff 3-fold increase, read-out: AK-based Prestwick library screening result, E. coli (fold increase in extracellular AK activity)). For the same compound, in the test on E. faecium (planktonic E. faecium, positive cutoff 3-fold increase, read-out: AK-based Prestwick library screening result, E. faecium (fold increase in extracellular AK activity)), the fold induction at 50 µM turned out to be 1.

As to `N[C@@H](Cc1ccc(O)c(O)c1)C(=O)O` [Levodopa], the fold induction at 50 µM was 0.5 with P. aeruginosa (setting [3]); 0.7 in test [1] (setting [4]); 0.8 in the test with E. cloacae (setting [5]); 0.6 with K. pneumoniae (setting [6]); 0.5 in test [2] (setting [7]); 0.6 with E. coli (setting [8]). The fold induction at 50 µM with E. faecium (setting [9]) was determined as 0.8.

Regarding `C[C@H](N)[C@H](O)c1ccc(O)c(O)c1` [Levonordefrin], the fold induction at 50 µM with P. aeruginosa (planktonic, […], read-out: AK-based Prestwick Library Screening Results, P. aeruginosa (fold increase in extracellular AK activity)) turned out to be 0.7; in test [1] (planktonic, […], read-out: AK-based Prestwick Library Screening Results, A. baumannii (fold increase in extracellular AK activity)), 0.8; with E. cloacae (planktonic, […], read-out: AK-based Prestwick Library Screening Results, E. cloacae (fold increase in extracellular AK activity)), 0.7; with K. pneumoniae (planktonic, […], read-out: AK-based Prestwick Library Screening Results, K. pneumoniae (fold increase in extracellular AK activity)) it was 0.8; in test [2] (planktonic, […], read-out: AK-based Prestwick Library Screening Results, S. aureus (fold increase in extracellular AK activity)) it was 0.6; in the test with E. coli (planktonic, […], read-out: AK-based Prestwick Library Screening Results, E. coli (fold increase in extracellular AK activity)) it was 0.7. For the same compound, in the test with E. faecium (planktonic, […], read-out: AK-based Prestwick Library Screening Results, E. faecium (fold increase in extracellular AK activity)), the fold induction at 50 µM came out at 1.

For the compound `CCC(=O)O[C@@](Cc1ccccc1)(c1ccccc1)[C@@H](C)CN(C)C` [Levopropoxyphene napsylate], the fold induction at 50 µM in the test with P. aeruginosa ([…], read-out: AK-based Prestwick Library Screening Results, P. aeruginosa (fold increase in extracellular AK activity)) was 0.7; in test [1] ([…], read-out: AK-based Prestwick Library Screening Results, A. baumannii (fold increase in extracellular AK activity)), 0.7; with E. cloacae ([…], read-out: AK-based Prestwick Library Screening Results, E. cloacae (fold increase in extracellular AK activity)), 0.7; with K. pneumoniae ([…], read-out: AK-based Prestwick Library Screening Results, K. pneumoniae (fold increase in extracellular AK activity)), 0.6; in test [2] ([…], read-out: AK-based Prestwick Library Screening Results, S. aureus (fold increase in extracellular AK activity)), 0.6; with E. coli ([…], read-out: AK-based Prestwick Library Screening Results, E. coli (fold increase in extracellular AK activity)), 0.6. The fold induction at 50 µM in the test with E. faecium ([…], read-out: AK-based Prestwick Library Screening Results, E. faecium (fold increase in extracellular AK activity)) turned out to be 1.

These data come from patent US10004701B2, “Methods and compositions for treating infection” (UNIVERSITY OF ROCHESTER, priority 2012, dated 2018).
